Assay results as given in patent US7432276B2, “ABCA1 elevating compounds” (CV Therapeutics, Inc., priority 2005, dated 2008).

These compounds were tested on ABCA1 mRNA (assay: ABCA1 mRNA induction in THP-1 cells, QuantiGene branched DNA assay). Conditions: 10 μM test compound, 18-20 hours.
Assay type: cell-based
In short: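 THP-1 cells, grown to subconfluence, treated with compounds at 10 and 3 μM in DMEM/BSA for 18–20 h. Lysates hybridized with ABCA1-specific probe 16–18 h at 53 °C; QuantiGene branched DNA luminescence gives fold increase over DMSO.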
For COc1ccc(Br)c2c1OCC1C2Nc2ccc(C(N)=S)cc2C1(C)C (stereo not drawn) [Number 82, amino(1-bromo-4-methoxy-7,7-dimethyl(7,12,12a,6a-tetrahydrochromano[4,3-b]quinolin-9-yl))methane-1-thione], the “ABCA1 Induction Fold Increase over DMSO Vehicle” value (from here on “ABCA1 Induction Fold Increase”) was 2.0 FOLD INCREASE. With COc1ccc(Br)c2c1OC[C@@H]1[C@H]2Nc2ccc(C(O)(C(F)(F)F)C(F)(F)F)cc2C1(C)C [Number 64, 2-((6aS,12aR)-1-bromo-4-methoxy-7,7-dimethyl(7,12,12a,6a-tetrahydrochromano[4,3-b]quinolin-9-yl))-1,1,1,3,3,3-hexafluoropropan-2-ol] the “ABCA1 Induction Fold Increase” value was 2.5 FOLD INCREASE. With CCOC(=O)c1ccc(-c2ccc3c(c2)C(C)(C)[C@H]2COc4cccc(OC)c4[C@H]2N3)cc1 (relative stereo) [Number 107, ethyl 4-((12aS,6aR)-1-methoxy-7,7-dimethyl-7,12,12a,6a-tetrahydrochromano[4,3-b]quinolin-9-yl)benzoate] the “ABCA1 Induction Fold Increase” value was 2.9 FOLD INCREASE. In the case of CC(=O)c1ccc2c(c1)C(C)(C)C1COc3c(F)cccc3C1N2 (stereo not drawn) [Number 101, 1-(4-fluoro-7,7-dimethyl-7,12,12a,6a-tetrahydrochromano[4,3-b]quinolin-9-yl)ethan-1-one], the “ABCA1 Induction Fold Increase” value is reported as 4.0 FOLD INCREASE.

Same assay, conditions: Homo sapiens, 10 μM test compound, 18-20 hours, read-out: ABCA1 Induction Fold Increase over DMSO Vehicle
CCCN1c2ccccc2C(C)(C)[C@H]2COc3cccc(OC)c3[C@H]21 [Number 172, (6aR,12aS)-12-propyl-6a,7,12,12a-tetrahydro-1-methoxy-7,7-dimethyl-6H-chromeno[4,3-b]quinoline] showed a fold induction at 10 µM of 1.7. In the case of COC(=O)c1ccc2c(c1)C(C)(C)[C@@H]1COc3c(OC)cc(Br)cc3[C@H]1N2 [Number 152, (6aS,12aS)-methyl 2-bromo-6a,7,12,12a-tetrahydro-4-methoxy-7,7-dimethyl-6H-chromeno[4,3-b]quinoline-9-carboxylate], the fold induction at 10 µM is reported as 6.1. With COC(=O)c1ccc2c(c1)C(C)(C)[C@H]1COc3cccc(OC)c3[C@H]1N2C [Number 153, (6aR,12aS)-methyl 6a,7,12,12a-tetrahydro-1-methoxy-7,7,12-trimethyl-6H-chromeno[4,3-b]quinoline-9-carboxylate] the fold induction at 10 µM was 7.4. For CCOC(=O)CN1c2ccccc2C(C)(C)[C@H]2COc3cccc(OC)c3[C@H]21 [Number 157, ethyl 2-((6aR,12aS)-6a,7-dihydro-1-methoxy-7,7-dimethyl-6H-chromeno[4,3-b]quinolin-12(12aH)-yl)acetate], the fold induction at 10 µM was 3.3. COc1ccccc1-c1ccc2c(c1)C(C)(C)C1=C(c3cccc(F)c3OC1)N2O [Number 104, 4-fluoro-9-(2-methoxyphenyl)-7,7-dimethyl-7,12-dihydro-6H-chromeno[4,3-b]quinolin-12-ol] was tested, and the fold induction at 10 µM was 2.9. COc1cccc2c1[C@H]1Nc3ccc(C(=O)N4CCNCC4)cc3C(C)(C)[C@H]1CO2 [Number 127, ((6aR,12aS)-6a,7,12,12a-tetrahydro-1-methoxy-7,7-dimethyl-6H-chromeno[4,3-b]quinolin-9-yl)(piperazin-1-yl)methanone] was tested, and the fold induction at 10 µM was 5.1. COc1ccc2c(c1)C1Nc3ccc(C(O)(C(F)(F)F)C(F)(F)F)cc3C(C)(C)C1CO2 (stereo not drawn) [Number 7, 1,1,1,3,3,3-hexafluoro-2-(2-methoxy-7,7-dimethyl(7,12,12a,6a-tetrahydrochromano[4,3-b]quinolin-9-yl))propan-2-ol] was tested, and the fold induction at 10 µM was 3.1. In the case of COc1cc(Br)cc2c1OC[C@@H]1[C@@H]2Nc2ccc(-c3nnn[nH]3)cc2C1(C)C [Number 169, (6aS,12aS)-2-bromo-6a,7,12,12a-tetrahydro-4-methoxy-7,7-dimethyl-9-(1H-tetrazol-5-yl)-6H-chromeno[4,3-b]quinoline], the fold induction at 10 µM is reported as 9.7.
